This note sets out measurements from patent US20240417405A1, “Substituted Spiro Derivatives” (Janssen Pharmaceutica NV, priority 2021, published 2024).

One may read the IC50 as the concentration at which inhibition is half-maximal.

Test [1] concerns the target T1, menin/MLL (terbium chelate-labeled menin, FITC-MBM1 peptide) (Homo sapiens, UniProt O00255, T541A).
T1 construct: Menin (a.a 1-610-6xhis tag)
T1 sequence (O00255 with tags, fused parts or gaps T541A): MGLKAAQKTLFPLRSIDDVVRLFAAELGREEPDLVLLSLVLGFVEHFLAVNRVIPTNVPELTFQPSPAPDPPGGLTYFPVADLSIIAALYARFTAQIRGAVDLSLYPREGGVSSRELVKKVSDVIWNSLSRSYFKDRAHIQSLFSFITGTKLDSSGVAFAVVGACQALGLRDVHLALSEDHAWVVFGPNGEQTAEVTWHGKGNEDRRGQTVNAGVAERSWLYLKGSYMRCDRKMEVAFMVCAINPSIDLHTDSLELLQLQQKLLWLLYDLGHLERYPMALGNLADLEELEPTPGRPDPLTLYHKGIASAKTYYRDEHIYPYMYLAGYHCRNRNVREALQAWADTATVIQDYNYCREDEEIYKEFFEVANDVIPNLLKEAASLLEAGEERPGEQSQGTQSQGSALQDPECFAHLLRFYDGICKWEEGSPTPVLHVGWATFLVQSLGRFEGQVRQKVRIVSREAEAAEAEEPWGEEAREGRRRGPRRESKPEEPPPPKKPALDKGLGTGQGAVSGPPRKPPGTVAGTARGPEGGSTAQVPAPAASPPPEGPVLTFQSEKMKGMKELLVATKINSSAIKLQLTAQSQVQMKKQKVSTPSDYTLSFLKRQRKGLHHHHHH
The test is described as follows: Menin/MLL homogenous time-resolved fluorescence (HTRF) assay. The test is classed as binding. The conditions noted are these: 30 min incubation. A digest of the protocol: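 Displacement of FITC-labeled MBM1 peptide (75 nM) from terbium-labeled menin 1-610 (200 pM) measured by HTRF emission ratio. Eleven four-fold dilutions, typically from 10 μM, normalised to saturating-competitor and no-compound controls; IC50 from four-parameter logistic.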
(In general: TR-FRET usually uses a lanthanide donor and a delayed reading to cut background.)

Test [2] deals with MOLM14 cells. Briefly: Proliferation assay, spheroid-like growth, MOLM14 (MLL-AF9 rearranged). The test is classed as cell-based, human. The conditions noted are these: Homo sapiens, MOLM-14, 192 h, 8 days, confluence as measure of spheroid size, read-out: spheroid assay_OneTime MOLM14 IC50. A digest of the protocol:
(§1)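 Read-out is spheroid confluence from live-cell images taken on day 8, scaled between DMSO-treated wells (0% cytotoxicity) and a low control such as 1 μM staurosporin. Cells were exposed to compound for 8 days in low-attachment plates; KO-52 served as the MLL-wildtype counterscreen.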

For test [3], the system named is KO-52 cells. The test is described as follows: Proliferation assay, spheroid-like growth, KO-52 (MLL wildtype control cell line). In kind it is cell-based, human. The note with it: Homo sapiens, 192 h, KO-52 control cells, 8 days, confluence as measure of spheroid size; read-out: spheroid assay_OneTime KO-52 IC50. A digest of the protocol: as §1

Take `CC(C)[C@H]([C@H]1C[C@@H](N2CCC(O)C(F)C2)C1)N1CC2(CCN(c3ncnnc3Oc3ccc(F)cc3-c3cncnc3C3CC3)C2)C1` (single isomer, unassigned) [Compound 10]: the IC50 was 0.4 nM in test [1], 17 nM in test [2] and 5090 nM in test [3].
On the same counts, the results for `CC(C)C([C@H]1C[C@H](N2C[C@H]3COC[C@H]3C2)C1)N1CC2(CCN(c3ncnnc3Oc3ccc(F)cc3-c3cnccc3C3CC3)C2)C1` (stereo partly drawn) [Compound 139] are 0.1 nM, 41 nM and 1310 nM.
Take `CC(=O)N[C@H]1C[C@@H]([C@@H](C(C)C)N2CC3(CCN(c4ncnnc4Oc4ccc(F)cc4-c4nncnc4C4CC4)C3)C2)C1` (single isomer, unassigned) [Compound 306]: the values for the IC50 in test [1], in test [2] and in test [3] were 0.3 nM, 56 nM and 6460 nM, respectively.
On the same counts, the results for `CC(C)[C@@H]([C@H]1C[C@H](N(C)C)C1)N1CC2(CCN(c3ncnnc3Oc3ccc(F)cc3-c3cccnc3C3CC3)C2)C1` (single isomer, unassigned) [Compound 91] are 0.1 nM, 26 nM and 1030 nM.
In the same order, the values of `CC(C)[C@H]([C@H]1C[C@@H](N2CC(C(=O)N(C)C)C2)C1)N1CC2(CCN(c3ncnnc3Oc3ccc(F)cc3-c3cncnc3C3CC3)C2)C1` (single isomer, unassigned) [Compound 243] are 2.5 nM, 580 nM and > 15000 nM.
Consider `CC(C)C([C@H]1C[C@@H](Nc2ccn(C)n2)C1)N1CC2(CCN(c3ncnnc3Oc3ccc(F)cc3-c3cncnc3C3CC3)C2)C1` (stereo partly drawn) [Compound 194], for which the IC50 in test [1] is 0.9 nM; in test [2], 450 nM; in test [3] it was > 15000 nM.
Take `CC(=O)N1CC2(CCN([C@H]3C[C@@H]([C@@H](C(C)C)N4CC5(CCN(c6ncnnc6Oc6ccc(F)cc6-c6cncnc6C6CC6)C5)C4)C3)C2)C1` (single isomer, unassigned) [Compound 53]: the IC50 in test [1] was determined as 0.2 nM; in test [2] it was 5 nM; in test [3], 9280 nM.
In the case of `CC(C)C([C@H]1C[C@@H](N(C)C)C1)N1CC2(CCN(c3ncnnc3Oc3ccc(F)cc3-c3cncnc3C3CC3)C2)C1` (stereo partly drawn) [Compound 136], the results for the half-maximal inhibitory concentration (IC50) in test [1], in test [2] and in test [3] were 0.1 nM, 8 nM and 7070 nM, respectively.
On the same counts, the results for `CC(C)[C@@H]([C@H]1C[C@@H](N2CC3(COC3)C2)C1)N1CC2(CCN(c3ncnnc3Oc3ccc(F)cc3-c3cnncc3C3CC3)C2)C1` (single isomer, unassigned) [Compound 106] are 0.1 nM, 11 nM and 4990 nM.
For `CC(C)C([C@H]1C[C@@H](NC(=O)C2CC2)C1)N1CC2(CCN(c3ncnnc3Oc3ccc(F)cc3-c3cnncc3C3CC3)C2)C1` (stereo partly drawn) [Compound 184], the IC50 in test [1] turned out to be 0.2 nM; in test [2] it was 10 nM; in test [3], 600 nM.
In the same order, the values of `CC(C)[C@H]([C@H]1C[C@@H](N2C[C@H]3COC[C@H]3C2)C1)N1CC2(CCN(c3ncnnc3Oc3ccc(F)cc3-c3ncccc3C3CC3)C2)C1` (single isomer, unassigned) [Compound 149] are 0.1 nM, < 2 nM and 510 nM.
Consider `CC(C)[C@@H]([C@H]1C[C@H](N2CC[C@@](C)(O)C2)C1)N1CC2(CCN(c3ncnnc3Oc3ccc(F)cc3-c3cnncc3C3CC3)C2)C1` (single isomer, unassigned) [Compound 115], for which the IC50 in test [1] is 0.2 nM; in test [2], 430 nM; in test [3] it was > 15000 nM.
On the same counts, the results for `CC(=O)N1CC[C@@]12CCN([C@H]1C[C@@H]([C@@H](C(C)C)N3CC4(CCN(c5ncnnc5Oc5ccc(F)cc5-c5cncnc5C5CC5)C4)C3)C1)C2` (single isomer, unassigned) [Compound 59] are 0.1 nM, 24 nM and 5010 nM.
With `CC(C)[C@H]([C@H]1C[C@@H](NC(=O)C2(F)CC2)C1)N1CC2(CCN(c3ncnnc3Oc3ccc(F)cc3-c3n[nH]c(=O)cc3C3CC3)C2)C1` (single isomer, unassigned) [Compound 311], the IC50 in test [1] came to 0.3 nM; in test [2], 52 nM; in test [3], 9990 nM.
In the case of `CC(C)[C@@H]([C@H]1C[C@H](NC2CC2)C1)N1CC2(CCN(c3ncnnc3Oc3ccc(F)cc3-c3nnccc3C3CC3)C2)C1` (single isomer, unassigned) [Compound 273], the concentration for half-maximal inhibition (IC50) in test [1] was 0.3 nM; in test [2], 110 nM; in test [3] it was > 15000 nM.
On the same counts, the results for `CC(C)[C@H]([C@H]1C[C@@H](N(C)C)C1)N1CC2(CCN(c3ncnnc3Oc3ccc(F)cc3-c3ncccc3C3CC3)C2)C1` (single isomer, unassigned) [Compound 147] are 0.1 nM, 4 nM and 390 nM.
In the same order, the values of `CC(=O)N1CCN([C@H]2C[C@@H]([C@@H](C(C)C)N3CC4(CCN(c5ncnnc5Oc5ccc(F)cc5-c5cncnc5C5CC5)C4)C3)C2)CC1` (single isomer, unassigned) [Compound 34] are 0.5 nM, 36 nM and 5140 nM.
On to `CC(C)[C@H]([C@H]1C[C@H](N2CCC(F)C(O)C2)C1)N1CC2(CCN(c3ncnnc3Oc3ccc(F)cc3-c3cncnc3C3CC3)C2)C1` (single isomer, unassigned) [Compound 31], for which the IC50 in test [1] was 0.3 nM; in test [2], 7 nM; in test [3] it was 2410 nM.
On the same counts, the results for `CC(C)C([C@H]1C[C@@H](N2CCC(C#N)CC2)C1)N1CC2(CCN(c3ncnnc3Oc3ccc(F)cc3-c3cncnc3C3CC3)C2)C1` (stereo partly drawn) [Compound 122] are 0.2 nM, 55 nM and > 15000 nM.
In the same order, the values of `CC(C)[C@H]([C@H]1C[C@@H](N2CC[C@@](C)(O)C2)C1)N1CC2(CCN(c3ncnnc3Oc3ccc(F)cc3-c3cncnc3C3CC3)C2)C1` (single isomer, unassigned) [Compound 47] are 0.2 nM, 3 nM and 4360 nM.
Take `CC(C)[C@H]([C@H]1C[C@@H](N2CC3(COC3)C2)C1)N1CC2(CCN(c3ncnnc3Oc3ccc(F)cc3-c3cnncc3C3CC3)C2)C1` (single isomer, unassigned) [Compound 82]: the figures for the IC50 in test [1], in test [2] and in test [3] were 0.4 nM, 300 nM and > 15000 nM, respectively.
On the same counts, the results for `CC(=O)N1CCCC12CN([C@H]1C[C@H]([C@@H](C(C)C)N3CC4(CCN(c5ncnnc5Oc5ccc(F)cc5-c5cncnc5C5CC5)C4)C3)C1)C2` (single isomer, unassigned) [Compound 175] are 0.1 nM, 110 nM and > 15000 nM.
On the same counts, the results for `CC(C)[C@H]([C@H]1C[C@@H](NC(=O)C2CC2)C1)N1CC2(CCN(c3ncnnc3Oc3ccc(F)cc3-c3nncn3C3CC3)C2)C1` (single isomer, unassigned) [Compound 307] are 0.7 nM, > 940 nM and > 15000 nM.
